Measurements as given in patent US12503438B2, “Compounds for the treatment of kinase-dependent disorders” (Exelixis, Inc., priority 2019, dated 2025).

Molecular target: KDR (Homo sapiens, UniProt P35968)
Assay: Human KDR kinase assay (33P-phosphoryl transfer radiometric, KinaseProfiler)
Design: Human KDR (residues K790-V1356, 55 nM); purchased Eurofins Pharma Discovery Services UK Limited (KinaseProfiler service)
Conditions: biochemical activity; 10 μM ATP
Description: Kinase activity and compound inhibition were investigated using the ^33P-Phosphoryl transfer radiometric kinase assay, performed using the KinaseProfiler™ service of Eurofins Pharma Discovery Services UK Limited. Dose-response experiments were performed using nine compound concentrations in a 96-well microtiter plate. For each assay, all compounds were prepared to a 50× final assay concentration (50 μM) in 100% DMSO, then diluted in a half-log series, with the final top concentration at 1 μM. This working stock of the compound was added to the assay well as the first component in the reaction, followed by the remaining components as detailed in the following assay protocols below. The positive control wells (100% kinase activity) contain all components of the reaction including 2% DMSO (control for solvent effects), except the compound of interest. Blank wells contain all components of the reaction, with the reference inhibitor, staurosporine. This reference compound was used to abolish kinase activity and generated the 0% kinase activity base-line. IC50 values were calculated by nonlinear regression analysis using the sigmoidal dose-response (variable slope) curve fit on XLFit version 5.3 (ID Business Solutions).
Human KDR (residues K790-V1356, 55 nM) was incubated with 8 mM MOPS pH 7.0, 0.2 mM EDTA, 0.33 mg/mL myelin basic protein, 10 mM magnesium acetate, and 10 μM [γ-^33P-ATP]. The reaction was initiated by the addition of the Mg/ATP mix. After incubation for 40 minutes at room temperature, the reaction was stopped by the addition of phosphoric acid to a concentration of 0.5%. A reaction aliquot of 10 μL was then spotted onto a P30 filtermat and washed four times for 4 minutes in 0.425% phosphoric acid and once in methanol prior to drying and scintillation counting. Incorporated ^33P was measured using the Wallac Microbeta scintillation counter (Perkin Elmer).

Sequence of KDR (P35968 790-1356): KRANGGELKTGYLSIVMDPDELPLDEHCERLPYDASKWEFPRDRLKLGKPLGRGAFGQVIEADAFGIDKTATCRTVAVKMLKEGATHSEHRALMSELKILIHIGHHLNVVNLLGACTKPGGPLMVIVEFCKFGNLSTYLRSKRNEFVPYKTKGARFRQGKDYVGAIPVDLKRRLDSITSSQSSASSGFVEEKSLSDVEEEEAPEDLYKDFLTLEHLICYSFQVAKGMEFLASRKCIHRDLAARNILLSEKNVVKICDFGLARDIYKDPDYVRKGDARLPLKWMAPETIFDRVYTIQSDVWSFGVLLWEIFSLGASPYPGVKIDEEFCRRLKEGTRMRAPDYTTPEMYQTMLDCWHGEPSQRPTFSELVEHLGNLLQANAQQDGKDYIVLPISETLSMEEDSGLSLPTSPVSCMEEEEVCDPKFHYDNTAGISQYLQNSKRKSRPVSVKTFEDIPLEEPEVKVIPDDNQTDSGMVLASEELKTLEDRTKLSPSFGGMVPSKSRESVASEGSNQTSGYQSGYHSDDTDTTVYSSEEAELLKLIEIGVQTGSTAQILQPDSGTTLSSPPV

| IC50 [nM] | Structure (SMILES) |
| --- | --- |
| 10 to 100 | COc1cc2c(Oc3ccc(NC(=O)C4(C(=O)Nc5ccc(F)cc5)CC4)cc3)ccnc2cc1-c1cnn(C)c1 [Compound 76, 1-N′-(4-Fluorophenyl)-1-N-[4-[6-methoxy-7-(1-methylpyrazol-4-yl)quinolin-4-yl]oxyphenyl]cyclopropane-1,1-dicarboxamide] |
| 10 to 100 | Cn1ccnc1-c1ccc2c(Oc3ccc(NC(=O)C4(C(=O)Nc5ccc(F)cc5)CC4)cc3)ccnc2c1 [Compound 75, 1-N′-(4-Fluorophenyl)-1-N-[4-[7-(1-methylimidazol-2-yl)quinolin-4-yl]oxyphenyl]cyclopropane-1,1-dicarboxamide] |
| 10 to 100 | Cc1cc2c(Oc3ccc(NC(=O)C4(C(=O)Nc5ccc(F)cc5)CC4)cc3)ccnc2cc1-c1cnn(C)c1 [Compound 78, 1-N′-(4-Fluorophenyl)-1-N-[4-[6-methyl-7-(1-methylpyrazol-4-yl)quinolin-4-yl]oxyphenyl]cyclopropane-1,1-dicarboxamide] |
| 10 to 100 | O=C(Nc1ccc(F)cc1)C1(C(=O)Nc2ccc(Oc3ccnc4cc(C5CCNC5)ccc34)cc2)CC1 (stereo not shown) [Compound 83, 1-N′-(4-Fluorophenyl)-1-N-[4-(7-pyrrolidin-3-ylquinolin-4-yl)oxyphenyl]cyclopropane-1,1-dicarboxamide] |
| 10 to 100 | O=C(Nc1ccc(F)cc1)C1(C(=O)Nc2ccc(Oc3ccnc4cc(-c5cccnc5)ccc34)cc2)CC1 [Compound 25, 1-N′-(4-Fluorophenyl)-1-N-[4-(7-pyridin-3-ylquinolin-4-yl)oxyphenyl]cyclopropane-1,1-dicarboxamide] |
| 10 to 100 | O=C(Nc1ccc(F)cc1)C1(C(=O)Nc2ccc(Oc3ccnc4cc(-c5cn[nH]c5)ccc34)cc2)CC1 [Compound 67, 1-N′-(4-Fluorophenyl)-1-N-[4-[7-(1H-pyrazol-4-yl)quinolin-4-yl]oxyphenyl]cyclopropane-1,1-dicarboxamide] |
| 10 to 100 | O=C(Nc1ccc(F)cc1)C1(C(=O)Nc2ccc(Oc3ccnc4cc(-c5ncco5)ccc34)cc2)CC1 [Compound 66, 1-N′-(4-Fluorophenyl)-1-N-[4-[7-(1,3-oxazol-2-yl)quinolin-4-yl]oxyphenyl]cyclopropane-1,1-dicarboxamide] |
| 100 to 1000 | CC1Cc2cc(F)ccc2N1C(=O)C1(C(=O)Nc2ccc(Oc3ccnc4cc(-c5cnn(C)c5)ccc34)cc2)CC1 (stereo not shown) [Compound 80, 1-(5-Fluoro-2-methyl-2,3-dihydroindole-1-carbonyl)-N-[4-[7-(1-methylpyrazol-4-yl)quinolin-4-yl]oxyphenyl]cyclopropane-1-carboxamide] |
| 10 to 100 | O=C(Nc1ccc(F)cc1)C1(C(=O)Nc2ccc(Oc3ccnc4cc(-c5cnn(C6COC6)c5)ccc34)cc2)CC1 [Compound 24, 1-N′-(4-Fluorophenyl)-1-N-[4-[7-[1-(oxetan-3-yl)pyrazol-4-yl]quinolin-4-yl]oxyphenyl]cyclopropane-1,1-dicarboxamide] |
| 10 to 100 | O=C(Nc1ccc(F)cc1)C1(C(=O)Nc2ccc(Oc3ccnc4cc(-c5ncc[nH]5)ccc34)cc2)CC1 [Compound 74, 1-N′-(4-Fluorophenyl)-1-N-[4-[7-(1H-imidazol-2-yl)quinolin-4-yl]oxyphenyl]cyclopropane-1,1-dicarboxamide] |
| 10 to 100 | CC(=O)N1CCC(n2cc(-c3ccc4c(Oc5ccc(NC(=O)C6(C(=O)Nc7ccc(F)cc7)CC6)cc5)ccnc4c3)cn2)CC1 [Compound 62, 1-N-[4-[7-[1-(1-Acetylpiperidin-4-yl)pyrazol-4-yl]quinolin-4-yl]oxyphenyl]-1-N′-(4-fluorophenyl)cyclopropane-1,1-dicarboxamide] |
| 10 to 100 | Cn1cnc(-c2ccc3c(Oc4ccc(NC(=O)C5(C(=O)Nc6ccc(F)cc6)CC5)cc4)ccnc3c2)c1 [Compound 69, 1-N′-(4-Fluorophenyl)-1-N-[4-[7-(1-methylimidazol-4-yl)quinolin-4-yl]oxyphenyl]cyclopropane-1,1-dicarboxamide] |
| 10 to 100 | O=C(Nc1ccc(F)cc1)C1(C(=O)Nc2ccc(Oc3ccnc4cc(-c5nnco5)ccc34)cc2)CC1 [Compound 73, 1-N′-(4-Fluorophenyl)-1-N-[4-[7-(1,3,4-oxadiazol-2-yl)quinolin-4-yl]oxyphenyl]cyclopropane-1,1-dicarboxamide] |
| 10 to 100 | C#Cc1ccc2c(Oc3ccc(NC(=O)C4(C(=O)Nc5ccc(F)cc5)CC4)cc3)ccnc2c1 [Compound 64, 1-N-[4-(7-Ethynylquinolin-4-yl)oxyphenyl]-1-N′-(4-fluorophenyl)cyclopropane-1,1-dicarboxamide] |
| 10 to 100 | Cn1ncc(-c2ccc3c(Oc4ccc(NC(=O)C5(C(=O)Nc6ccc(F)cc6)CC5)cc4)ccnc3c2)n1 [Compound 86, 1-N′-(4-Fluorophenyl)-1-N-[4-[7-(2-methyltriazol-4-yl)quinolin-4-yl]oxyphenyl]cyclopropane-1,1-dicarboxamide] |
| ≤ 10 | O=C(Nc1ccc(F)cc1)C1(C(=O)Nc2ccc(Oc3ccnc4cc(-c5cnn(CCO)c5)ccc34)cc2)CC1 [Compound 18, 1-N′-(4-Fluorophenyl)-1-N-[4-[7-[1-(2-hydroxyethyl)pyrazol-4-yl]quinolin-4-yl]oxyphenyl]cyclopropane-1,1-dicarboxamide] |
| 10 to 100 | Cn1cc(-c2ccc3c(Oc4ccc(NC(=O)C5(C(=O)N6CCc7cc(F)ccc76)CC5)cc4)ccnc3c2)cn1 [Compound 81, 1-(5-Fluoro-2,3-dihydroindole-1-carbonyl)-N-[4-[7-(1-methylpyrazol-4-yl)quinolin-4-yl]oxyphenyl]cyclopropane-1-carboxamide] |
| 10 to 100 | CS(=O)(=O)n1cc(-c2ccc3c(Oc4ccc(NC(=O)C5(C(=O)Nc6ccc(F)cc6)CC5)cc4)ccnc3c2)cn1 [Compound 79, 1-N′-(4-Fluorophenyl)-1-N-[4-[7-(1-methylsulfonylpyrazol-4-yl)quinolin-4-yl]oxyphenyl]cyclopropane-1,1-dicarboxamide] |
| 10 to 100 | O=C(Nc1ccc(F)cc1)C1(C(=O)Nc2ccc(Oc3ccnc4cc(-c5ccncc5)ccc34)cc2)CC1 [Compound 26, 1-N′-(4-Fluorophenyl)-1-N-[4-(7-pyridin-4-ylquinolin-4-yl)oxyphenyl]cyclopropane-1,1-dicarboxamide] |
| 10 to 100 | O=C(Nc1ccc(F)cc1)C1(C(=O)Nc2ccc(Oc3ccnc4cc(-c5cnn(CCN6CCOCC6)c5)ccc34)cc2)CC1 [Compound 19, 1-N′-(4-Fluorophenyl)-1-N-[4-[7-[1-(2-morpholin-4-ylethyl)pyrazol-4-yl]quinolin-4-yl]oxyphenyl]cyclopropane-1,1-dicarboxamide] |
| 10 to 100 | O=C(Nc1ccc(F)cc1)C1(C(=O)Nc2ccc(Oc3ccnc4cc(-c5ccn(C(F)F)n5)ccc34)cc2)CC1 [Compound 84, 1-N-[4-[7-[1-(Difluoromethyl)pyrazol-3-yl]quinolin-4-yl]oxyphenyl]-1-N′-(4-fluorophenyl)cyclopropane-1,1-dicarboxamide] |
| 10 to 100 | O=C(Nc1ccc(F)cc1)C1(C(=O)Nc2ccc(Oc3ccnc4cc(-c5cnn(C6CCNCC6)c5)ccc34)cc2)CC1 [Compound 60, 1-N′-(4-Fluorophenyl)-1-N-[4-[7-(1-piperidin-4-ylpyrazol-4-yl)quinolin-4-yl]oxyphenyl]cyclopropane-1,1-dicarboxamide] |
| 10 to 100 | O=C(Nc1ccc(F)cc1)C1(C(=O)Nc2ccc(Oc3ccnc4cc(-c5cnc[nH]5)ccc34)cc2)CC1 [Compound 72, 1-N′-(4-Fluorophenyl)-1-N-[4-[7-(1H-imidazol-5-yl)quinolin-4-yl]oxyphenyl]cyclopropane-1,1-dicarboxamide] |
| 10 to 100 | O=C(Nc1ccc(F)cc1)C1(C(=O)Nc2ccc(Oc3ccnc4cc(-c5ccccn5)ccc34)cc2)CC1 [Compound 85, 1-N′-(4-Fluorophenyl)-1-N-[4-(7-pyridin-2-ylquinolin-4-yl)oxyphenyl]cyclopropane-1,1-dicarboxamide] |
| 100 to 1000 | C[Si](C)(C)C#Cc1ccc2c(Oc3ccc(NC(=O)C4(C(=O)Nc5ccc(F)cc5)CC4)cc3)ccnc2c1 [Compound 63, 1-N′-(4-Fluorophenyl)-1-N-[4-[7-(2-trimethylsilylethynyl)quinolin-4-yl]oxyphenyl]cyclopropane-1,1-dicarboxamide] |
| 10 to 100 | Cn1nccc1-c1ccc2c(Oc3ccc(NC(=O)C4(C(=O)Nc5ccc(F)cc5)CC4)cc3)ccnc2c1 [Compound 54, 1-N′-(4-Fluorophenyl)-1-N-[4-[7-(2-methylpyrazol-3-yl)quinolin-4-yl]oxyphenyl]cyclopropane-1,1-dicarboxamide] |
| 10 to 100 | O=C(Nc1ccc(F)cc1)C1(C(=O)Nc2ccc(Oc3ccnc4cc(-c5ccn[nH]5)ccc34)cc2)CC1 [Compound 68, 1-N′-(4-Fluorophenyl)-1-N-[4-[7-(1H-pyrazol-5-yl)quinolin-4-yl]oxyphenyl]cyclopropane-1,1-dicarboxamide] |
| 10 to 100 | O=C(Nc1ccc(F)cc1)C1(C(=O)Nc2ccc(Oc3ccnc4cc(-c5cnoc5)ccc34)cc2)CC1 [Compound 57, 1-N′-(4-Fluorophenyl)-1-N-[4-[7-(1,2-oxazol-4-yl)quinolin-4-yl]oxyphenyl]cyclopropane-1,1-dicarboxamide] |
